Biological target: Human plasma kallikrein (Homo sapiens (Human), UniProt P03952)
Assay: In vitro plasma kallikrein inhibition assay (chromogenic substrate D-Pro-Phe-Arg-pNa, absorbance at 405 nm, IC50 determination)
Assay type: biochemical
Conditions: for IC50: read-out: KLKB1 pIC50 (converted)
Method: In Vitro Plasma Kallikrein Inhibition Assay
The chromogenic substrate D-Pro-Phe-Arg-pNa, 2HCl (BIOPHEN CS-31(02) from Hyphen BioMed, Neuville-Sur-oise, France) was dissolved in 5 mL deionized water and stored at 4° C. […] All other chemicals were of analytical grade.
A stock solution of 7 μM in 50% glycerol was stored at −20° C.
Enzyme reactions were conducted in “assay buffer” comprised of 20 mM HEPES at pH 7.4, 150 mM NaCl, 0.1% PEG-8000 and 0.01% Triton X-100.
Both enzyme and substrate were diluted in assay buffer.
Plate measurements were conducted using a SPECTROStar Nano reader (BMG Labtech, San Francisco, Calif., USA). […] We used discrete wavelength, precise, kinetic reads of 15 cycles with a 60 sec cycle time.
Determination of IC50 values
The test compound was dissolved in 100% DMSO. The compounds were serially diluted in DMSO in a 7 point dose response. For the assays, 66.5 μL of protease solution (protease in assay buffer) was added per well followed by the addition of 8.5 μL of compound in 100% DMSO. […] After 30 min. incubation at room temperature on an orbital shaker, the reactions were started by the addition of 10 μL substrate solution (in assay buffer, final assay concentration was 600 uM). After the addition of the substrate solution the final DMSO concentration was 10%. The plate was placed again on the shaker for 5 sec, spun at 2000 rpm for 5 sec and read on the spectrophotometer. […] The IC50 value was calculated from the plot of rate vs. inhibitor concentration by a 4 parameter logistic equation: y=A+((B−A)/([…]))
where y is the rate at the inhibitor concentration, x. A is the minimum y value at the highest inhibitor concentration and B is the y value in the absence of inhibitor, C is the IC50 value and D is the slope factor. The curve fitting was conducted with the non-linear regression routine of the analysis software XLfit (IDBS, version 5.3.1).

Sequence of Human plasma kallikrein (P03952 391-638): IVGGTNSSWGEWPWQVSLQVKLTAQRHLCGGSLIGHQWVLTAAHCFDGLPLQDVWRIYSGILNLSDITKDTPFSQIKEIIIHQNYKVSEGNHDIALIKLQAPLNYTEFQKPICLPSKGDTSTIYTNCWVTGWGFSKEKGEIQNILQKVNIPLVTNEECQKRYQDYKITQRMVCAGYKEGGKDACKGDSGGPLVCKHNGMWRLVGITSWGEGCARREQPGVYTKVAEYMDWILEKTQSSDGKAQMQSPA
Sequence of Human plasma kallikrein (P03952 20-390 partner): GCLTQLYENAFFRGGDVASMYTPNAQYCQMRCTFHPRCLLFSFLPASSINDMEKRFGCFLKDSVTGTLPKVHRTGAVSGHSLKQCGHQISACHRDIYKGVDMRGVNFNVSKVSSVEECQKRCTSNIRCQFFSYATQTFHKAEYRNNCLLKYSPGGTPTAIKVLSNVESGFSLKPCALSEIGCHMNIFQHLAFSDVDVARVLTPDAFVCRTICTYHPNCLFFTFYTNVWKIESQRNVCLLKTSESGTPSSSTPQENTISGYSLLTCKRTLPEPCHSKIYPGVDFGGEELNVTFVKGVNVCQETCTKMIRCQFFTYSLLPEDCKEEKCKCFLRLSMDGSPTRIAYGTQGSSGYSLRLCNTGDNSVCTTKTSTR

| Compound | IC50 [nM] | KLKB1 pIC50 |
| --- | --- | --- |
| N=C(N)c1ccc(CNC(=O)c2ccc3c(c2)[C@@H]2O[C@H]3c3ccc(-c4ccc(F)cc4F)cc32)cn1 (single isomer, unassigned) [Example 268] | 5.01 | – |
| CON=C(N)c1ccc(CNC(=O)c2ccc3c(c2)[C@@H]2O[C@H]3c3ccc(-c4ccccc4F)cc32)cc1 [Example 240, (1R,8S)-12-(2-fluorophenyl)-N-{[4-(N′-methoxy-carbamimidoyl)phenyl]methyl}-15-oxatetracyclo-[6.6.1.0^2,^7.0^9,1^4]pentadeca-2,4,6,9,11,13-hexaene-4-carboxamide] | – | 4 |
| Cc1cc(N)nc(C)c1CNC(=O)c1ccc2c(c1)[C@@H]1O[C@H]2c2ccc(-c3ccc(Cl)cc3C#N)cc21 (single isomer, unassigned) [Example 139] | 3.02 | – |
| Cc1cc(N)nc(C)c1CNC(=O)c1ccc2c(c1)C1OC2c2ccc(C(=O)c3ccccc3)cc21 (racemic) [Example 188, (±)-N-[(6-amino-2,4-dimethylpyridin-3-yl)methyl]-12-benzoyl-15-oxatetracyclo-[6.6.1.0^2,^7.0^9,1^4]pentadeca-2,4,6,9,11,13-hexaene-4-carboxamide] | 10 | – |
| CCN(C(=O)c1ccccc1)c1ccc2c(c1)[C@H]1O[C@@H]2c2ccc(C(=O)NCc3c(C)cc(N)nc3C)cc21 (single isomer, unassigned) [Example 234] | 10000 | – |
| NC(=NO)c1ccc(CNC(=O)c2ccc3c(c2)[C@@H]2O[C@H]3c3ccc(-c4ccc(F)cc4F)cc32)cc1 [Example 203, (1R,8S)-12-(2,4-difluorophenyl)-N-{[4-(N′-hydroxycarbamimidoyl)phenyl]methyl}-15-oxatetracyclo[6.6.1.0^2,^7.0^9,1^4] pentadeca-2,4,6,9,11,13-hexaene-4-carboxamide] | – | 5.98 |
| COC(=O)c1cc2c(cc1C(=O)OC)C1OC2c2ccc(C(=O)NCc3c(C)cc(N)nc3C)cc21 (racemic) [Example 319, (±)-4,5-dimethyl 11-{[(6-amino-2,4-dimethyl-pyridin-3-yl)methyl]carbamoyl}-15-oxatetracyclo[6.6.1.0^2,^7.0^9,1^4] pentadeca-2(7),3,5,9,11,13-hexaene-4,5-dicarboxylate] | 2450 | – |
| (±)-N-[(6-amino-2,4-dimethyl- pyridin-3-yl)methyl]-12-(2,4- difluorophenyl)-11-ethenyl-15- oxatetracyclo[6.6.1.0^2,^7.0^9,1^4] pentadeca-2,4,6,9,11,13- hexaene-4-carboxamide and (±)-N-[(6-amino-2,4- dimethylpyridin-3-yl)methyl]- 11-(2,4-difluorophenyl)-12- ethenyl-15-oxatetraoyclo [6.6.1.0^2,^7.0^9,1^4]pentadeca- 2,4,6,9,11,13-hexaene-4- carboxamide [Example 322] | – | 8.57 |
| Cc1cc(N)nc(C)c1CNC(=O)c1ccc2c(c1)[C@@H]1O[C@H]2c2ccc(C(=O)N(C)c3ccc(F)cc3)cc21 (single isomer, unassigned) [Example 196] | 4680 | – |
| Cc1cc(N)nc(C)c1CNC(=O)c1ccc2c(c1)[C@@H]1O[C@H]2c2ccc(-n3c(=O)ccn3C)cc21 (single isomer, unassigned) [Example 186] | 1820 | – |
| N#Cc1cc(NC(=N)c2ccc3c(c2)[C@@H]2O[C@H]3c3ccc(-c4ccc(F)cc4F)cc32)ccc1F (single isomer, unassigned) [Example 283] | 100000 | – |
| Cc1cc(C(=N)N)cc(C)c1CNC(=O)c1ccc2c(c1)[C@@H]1O[C@H]2c2ccc(C3CC3)cc21 (single isomer, unassigned) [Example 331] | 1 | – |
| Cc1cc(C(=N)N)ccc1CNC(=O)c1ccc2c(c1)[C@@H]1O[C@H]2c2ccc(-c3ccc(F)cc3F)cc21 (single isomer, unassigned) [Example 306] | 1 | – |
| Cc1nc(N)cc(C2=CCOCC2)c1CNC(=O)c1ccc2c(c1)[C@@H]1O[C@H]2c2ccc(-c3ccc(F)cc3F)cc21 (single isomer, unassigned) [Example 222] | 28.2 | – |
| COc1cc2c(cc1OC)C1OC2c2ccc(C(=O)NCc3c(C)cc(N)nc3C)cc21 (racemic) [Example 335, (±)-N-[(6-amino-2,4-dimethylpyridin-3-yl)methyl]-11,12-dimethoxy-15-oxatetracyclo[6.6.1.0^2,^7.0^9,1^4] pentadeca-2,4,6,9(14),10,12-hexaene-4-carboxamide] | 1620 | – |
| COc1cc(N)nc(C)c1CNC(=O)c1ccc2c(c1)C1OC2c2ccc(-c3c(C)cc(F)cc3F)cc21 (racemic) [Example 150, (±)-N-[(6-amino-4-methoxy-2-methylpyridin-3-yl)methyl]-12-(2,4-difluoro-6-methylphenyl)-15-oxatetracyclo[6.6.1.0^2,^7.0^9,1^4] pentadeca-2,4,6,9,11,13-hexaene-4-carboxamide] | 34.7 | – |
| COc1cc(N)nc(C)c1CNC(=O)c1ccc2c(c1)C1OC2c2ccc(Cn3cccn3)cc21 (racemic) [Example 117, (±)-N-[(6-amino-4-methoxy-2-methylpyridin-3-yl)methyl]-12-[(1H-pyrazol-1-yl)methyl]-15-oxatetracyclo[6.6.1.0^2,^7.0^9,1^4] pentadeca-2,4,6,9,11,13-hexaene-4-carboxamide] | 3.98 | – |
| Cc1cc2c(c(C)c1CNC(=O)c1ccc3c(c1)C1OC3c3ccc(-c4c(C)cccc4F)cc31)CNC2 (racemic) [Example 124, (±)-N-[(4,6-dimethyl-2,3-dihydro-1H-isoindol-5-yl)methyl]-12-(2-fluoro-6-methylphenyl)-15-oxatetracyclo[6.6.1.0^2,^7.0^9,1^4] pentadeca-2,4,6,9,11,13-hexaene-4-carboxamide] | 11500 | – |
| Cc1nc(N)cc(C2CC2)c1CNC(=O)c1ccc2c(c1)C1OC2c2ccc(-c3ccc(F)cc3F)cc21 (racemic) [Example 180, (±)-N-[(6-amino-4-cyclopropyl-2-methylpyridin-3-yl)methyl]-12-(2,4-difluorophenyl)-15-oxatetracyclo[6.6.1.0^2,^7.0^9,1^4] pentadeca-2,4,6,9,11,13-hexaene-4-carboxamide] | 11 | – |

More lines, now with the values ahead:

| IC50 [nM] | KLKB1 pIC50 | Compound |
| --- | --- | --- |
| 1 | – | N=C(N)c1ccc(CNC(=O)c2ccc3c(c2)[C@@H]2O[C@H]3c3ccc(N4CC(F)(F)C4)cc32)cc1 (single isomer, unassigned) [Example 307] |
| 36.3 | – | Nc1nccc2c(CNC(=O)c3ccc4c(c3)[C@@H]3O[C@H]4c4ccc(C(=O)c5ccccc5)cc43)cccc12 (single isomer, unassigned) [Example 226] |
| 100000 | – | Nc1cc(NC(=O)c2ccc3c(c2)[C@@H]2O[C@H]3c3ccc(-c4ccc(F)cc4F)cc32)ccn1 (single isomer, unassigned) [Example 347] |
| 20.9 | – | Nc1nccc2c(CNC(=O)c3ccc4c(c3)[C@@H]3O[C@H]4c4ccc(-c5ccccc5F)cc43)c(Cl)ccc12 (single isomer, unassigned) [Example 294] |
| 24 | – | Cc1cc(N)nc(C)c1CNC(=O)c1ccc2c(c1)[C@@H]1O[C@H]2c2ccc(-c3ccc(F)c(F)c3F)cc21 (single isomer, unassigned) [Example 138] |
| 1 | – | N=C(N)c1ccc(CNC(=O)c2ccc3c(c2)[C@@H]2O[C@H]3c3ccc(-c4ccc(F)cc4)cc32)cc1 (single isomer, unassigned) [Example 201] |
| 105 | – | Cc1cc(N)nc(C)c1CNC(=O)c1ccc2c(c1)[C@@H]1O[C@H]2c2ccc(Oc3cccc(F)c3)cc21 (single isomer, unassigned) [Example 191] |
| 2750 | – | Cc1c(CNC(=O)c2ccc3c(c2)[C@@H]2O[C@H]3c3ccc(-c4ccccc4F)cc32)cnc(N)c1C (single isomer, unassigned) [Example 242] |
| 100000 | – | COc1ccc(CNC(=O)c2ccc3c(c2)[C@@H]2O[C@H]3c3ccc(-c4ccccc4F)cc32)cc1 (single isomer, unassigned) [Example 253] |
| 1 | – | N=C(N)c1ccc(CNC(=O)c2ccc3c(c2)[C@@H]2O[C@H]3c3cc(C4CC4)c(C4CC4)cc32)cc1 (single isomer, unassigned) [Example 400] |
| 30.9 | – | Cc1ccc2c(N)nccc2c1CNC(=O)c1ccc2c(c1)[C@@H]1O[C@H]2c2ccc(-c3ccccc3F)cc21 (single isomer, unassigned) [Example 299] |
| – | 6.03 | NC(=NO)c1ccc(CNC(=O)c2ccc3c(c2)[C@@H]2O[C@H]3c3ccc(-c4ccccc4F)cc32)cc1 [Example 204, (1R,8S)-12-(2-fluorophenyl)-N-{[4-(N′-hydroxycarbamimidoyl)phenyl]methyl}-15-oxatetracyclo[6.6.1.0^2,^7.0^9,1^4] pentadeca-2,4,6,9,11,13-hexaene-4-carboxamide] |
